# Columns and labels:
# [1] = system: human primary fibroblasts (PHF); assay: Marker expression (immunohistochemistry) in human primary fibroblasts with SP alone or with NK1 antagonists; format: cell-based; conditions: SP 1 μM; 48 h;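 also: primary human dermal fibroblasts, immunostained with rabbit polyclonal antibodies against each marker, value is percentage of stained cells among all cells counted in 20 fields at 400× per section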
# Protocol: These PHF were obtained and purified from samples obtained from the dermis of the skin of healthy volunteers as described in De Bari et al (De Bari et al. 2001). Briefly, small pieces of skin dermis were digested in a solution of hyaluronidase (Sigma-Aldrich, USA) at a concentration of 1 mg/ml for 15 minutes at 37° C. and then treated with 6 mg/ml collagenase type IV (Invitrogen) for 2 hours at 37° C. Then, the cells were washed, resuspended in DMEM culture medium with high glucose (Dulbecco's Modified Eagle's Medium, Invitrogen) supplemented with 1% antibiotic-antimycotic (Invitrogen) and 1% pyruvate Sodium (Invitrogen), and seeded in culture dishes at a concentration of 10,000 cells per square centimeter. When the cells reached confluence, adherent cells were detached using 0.5% sterile trypsin (Invitrogen) and used between passages 3 and 9. For tests shown below, the PHF were plated in 24-well plates at a concentration of 25,000 cells per well.
# After 48 hours of culture, cells were harvested and paraffin cell-blocks for immunohistochemical analysis were constructed, as previously explained in Example 1.
# In immunohistochemical assays the expression of the following markers were studied: TGFα (SAB4502953), TGF1 (SAB4502954), TGFβ2 (SAB4502956), TGFβ3 (SAB4502957), SPARC (HPA002989), MMP-3 (HPA007875) MMP-7 (SAB4501894), MMP-9 (SAB4501896), MMP-11 (SAB4501898), MMP-13 (SAB4501900) and MMP-14 (SAB4501901) using specific antibodies against them. All antibodies used were rabbit polyclonal antibodies obtained from Sigma-Aldrich and were used at a concentration of 1/1000. All experiments were carried out sixfold.
# On each of the six sections cell counts were performed in 20 high power fields (400×) through an Olympus microscope (model CX31) to assess the immunostaining. On each of the fields total cell number and number of cells displaying immunostaining were counted, being then the percentage of cells displaying said immunostaining.
# [2] = system: fibroblasts (PHF) co-cultured with tumor cells of human pancreatic adenocarcinoma (CAPAN-1); assay: Marker expression (IHC) in PHF co-cultured with CAPAN-1 tumor cells; format: cell-based; conditions: co-culture with CAPAN-1; SP 1 μM; 48 h;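 also: cultures grown in fresh plasma from a healthy human donor, run in six replicates, value is percent of fibroblasts positive for each marker, compared with fibroblasts cultured alone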
# Protocol: (§1) All cultures were maintained 48 hours, following which the same cells were included in paraffin blocks for subsequent analysis of the expression of different markers by immunohistochemistry (see Example 1). The primary antibodies used to perform immunohistochemical assays and their concentration are detailed in Example 2. All experiments were carried out sixfold. Analyzed markers in fibroblast cells (stromal cells) were: TGF-α, TGF-β1, TGF-β2, TGF-β3, SPARC, MMP-3, MMP-7, MMP-9, MMP-11, MMP-13 and MMP-14.
# [3] = system: fibroblasts (PHF) co-cultured with tumor cells of human breast carcinoma (MCF-7); assay: Marker expression (IHC) in PHF co-cultured with MCF-7 tumor cells; format: cell-based; conditions: co-culture with MCF-7; SP 1 μM; 48 h;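 also: value is the percentage of fibroblasts positive for each marker, with fibroblasts cultured alone as reference, grown in fresh plasma from a healthy donor, six replicates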
# Protocol: (§2) All cultures were maintained 48 hours, following which the same cells were included in paraffin blocks for subsequent analysis of the expression of different markers by immunohistochemistry (see Example 1). […] All experiments were carried out sixfold. Analyzed markers in fibroblast cells (stromal cells) were: TGF-α, TGF-β1, TGF-β2, TGF-β3, SPARC, MMP-3, MMP-7, MMP-9, MMP-11, MMP-13 and MMP-14.
# [4] = system: fibroblasts (PHF) co-cultured with tumor cells, ovarian carcinoma (EFO-27); assay: Marker expression (IHC) in PHF co-cultured with EFO-27 tumor cells; format: cell-based, human; conditions: co-culture with EFO-27; SP 1 μM; 48 h;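 also: values are the percentage of PHF fibroblasts positive for each marker, cultured in fresh plasma from a healthy human donor, each experiment run in six replicates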
# Protocol: as §2
# [5] = system: fibroblasts (PHF) co-cultured with tumor cells of human cervix carcinoma (KB); assay: Marker expression (IHC) in PHF co-cultured with KB tumor cells; format: cell-based; conditions: co-culture with KB; SP 1 μM; 48 h;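 also: percentage of PHF fibroblasts showing expression of each marker, cultured in fresh blood plasma from a healthy human donor, six replicates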
# Protocol: as §2
# [6] = system: fibroblasts (PHF) co-cultured with tumor cells of lung carcinoma (A-427); assay: Marker expression (IHC) in PHF co-cultured with A-427 tumor cells; format: cell-based, human; conditions: co-culture with A-427 lung carcinoma; SP 1 μM; 48 h;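 also: cultures grown in human blood plasma from a healthy donor, value is the percentage of fibroblasts positive for each marker, six replicates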
# Protocol: as §2
# [7] = system: fibroblasts (PHF) co-cultured with human glioma tumor cells (GAMG); assay: Marker expression (IHC) in PHF co-cultured with GAMG tumor cells; format: cell-based; conditions: co-culture with GAMG; SP 1 μM; 48 h;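 also: percentage of PHF fibroblasts positive for each marker, cultured in fresh plasma from a healthy donor, six replicates, with fibroblasts cultured alone as reference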
# Protocol: as §2
# [8] = system: fibroblasts (PHF) cells co-cultured with human T lymphoma tumor (DERL-7); assay: Marker expression (IHC) in PHF co-cultured with DERL-7 tumor cells; format: cell-based; conditions: PHF co-cultured with DERL-7 + SP
# Protocol: as §1
# [9] = system: fibroblast cells in co-culture with cells isolated from primary human tumors; assay: Marker expression (IHC) in fibroblasts co-cultured with primary human tumor cells (colon, pancreatic, lung carcinoma, glioma, multiple myeloma); format: cell-based
# Protocol: To check that the interaction of the human primary tumor cells with stromal cells, [human fibroblasts,] stimulates the secretion of substances of importance for survival and tumor progression, co-cultures were performed using stromal cells with human fibroblast-tumor cells obtained directly from primary human tumors.
# On this occasion, in order to identify, using immunohistochemical techniques, the secretion of substances of importance for the survival and progression of tumors, the following antibodies were used: TGF-α (SAB4502953), TGF-β1 (SAB4502954), TGF-β2 (SAB4502956), TGF-β3 (SAB4502957), SPARC (HPA002989), MMP-3 (HPA007875), MMP-7 (SAB4501894), MMP-9 (SAB4501896), MMP-11 (SAB4501898) MMP-13 (SAB4501900) and MMP-14 (SAB4501901) using specific antibodies against them. All antibodies used were rabbit polyclonal antibodies obtained from Sigma-Aldrich and were used at a concentration of 1/1000 to achieve these immunohistochemical studies. All experiments were carried out sixfold.
# [10] = Primary tumor cells (colon carcinoma) co-cultured + fibroblast + SP (1 μM)
# [11] = co-culture with cells isolated from glioma, SP 1 μM
# [12] = co-culture with cells isolated from lung cancer, SP 1 μM
# [13] = co-culture with cells isolated from multiple myeloma, SP 1 μM
# [14] = co-culture with cells isolated from pancreatic carcinoma, SP 1 μM
structure (smiles),measurement,setting,value
CSCC[C@H](NC(=O)[C@H](CC(C)C)NC(=O)CNC(=O)[C@H](Cc1ccccc1)NC(=O)[C@H](Cc1ccccc1)NC(=O)[C@H](CCC(N)=O)NC(=O)[C@H](CCC(N)=O)NC(=O)[C@@H]1CCCN1C(=O)[C@H](CCCCN)NC(=O)[C@@H]1CCCN1C(=O)[C@@H](N)CCCNC(=N)N)C(N)=O [SP],PHF cells expressing MMP-3,[1],33.9 ± 2.2%
same,PHF cells expressing MMP-7,[1],46.2 ± 2.3%
same,PHF cells expressing MMP-9,[1],35.5 ± 2.5%
same,PHF cells expressing MMP-11,[1],7.8 ± 2.9%
same,PHF cells expressing MMP-13,[1],17.1 ± 2.6%
same,PHF cells expressing MMP-14,[1],47.3 ± 2.5%
same,PHF cells expressing SPARC,[1],16 ± 1.9%
same,PHF cells expressing TGFα,[1],16.5 ± 1.2%
same,PHF cells expressing TGFβ 1,[1],18.4 ± 1.3%
same,PHF cells expressing TGFβ 2,[1],24.6 ± 1.4%
same,PHF cells expressing TGFβ 3,[1],23.1 ± 1.7%
same,PHF cells expressing MMP-3,[2],44.4 ± 1.6%
same,PHF cells expressing MMP-7,[2],58.2 ± 2.4%
same,PHF cells expressing MMP-9,[2],56.4 ± 1.5%
same,PHF cells expressing MMP-11,[2],25.3 ± 1.5%
same,PHF cells expressing MMP-13,[2],55 ± 3.6%
same,PHF cells expressing MMP-14,[2],47.2 ± 4.7%
same,PHF cells expressing SPARC,[2],49 ± 1.4%
same,PHF cells expressing TGF-α,[2],42.4 ± 2.1%
same,PHF cells expressing TGF-β1,[2],37.6 ± 1.4%
same,PHF cells expressing TGF-β2,[2],42.4 ± 6.1%
same,PHF cells expressing TGF-β3,[2],43 ± 2.6%
same,PHF cells expressing MMP-3,[3],44.5 ± 1.8%
same,PHF cells expressing MMP-7,[3],57.1 ± 2.7%
same,PHF cells expressing MMP-9,[3],55.3 ± 1.7%
same,PHF cells expressing MMP-11,[3],25.4 ± 2.7%
same,PHF cells expressing MMP-13,[3],46 ± 3.6%
same,PHF cells expressing MMP-14,[3],48.2 ± 3.5%
same,PHF cells expressing SPARC,[3],49 ± 1.5%
same,PHF cells expressing TGF-α,[3],42.6 ± 1.1%
same,PHF cells expressing TGF-β1,[3],43.2 ± 1%
same,PHF cells expressing TGF-β2,[3],42.6 ± 2.1%
same,PHF cells expressing TGF-β3,[3],46 ± 1.7%
same,PHF cells expressing MMP-3,[4],44.4 ± 1.5%
same,PHF cells expressing MMP-7,[4],55.1 ± 2.6%
same,PHF cells expressing MMP-9,[4],56.6 ± 1.7%
same,PHF cells expressing MMP-11,[4],22.4 ± 2.6%
same,PHF cells expressing MMP-13,[4],55 ± 2.5%
same,PHF cells expressing MMP-14,[4],46.2 ± 2.5%
same,PHF cells expressing SPARC,[4],46 ± 2.2%
same,PHF cells expressing TGF-α,[4],37.2 ± 2.1%
same,PHF cells expressing TGF-β1,[4],35.5 ± 2.1%
same,PHF cells expressing TGF-β2,[4],45.4 ± 1.2%
same,PHF cells expressing TGF-β3,[4],42 ± 1.6%
same,PHF cells expressing MMP-3,[5],42.6 ± 1.8%
same,PHF cells expressing MMP-7,[5],57.5 ± 5.8%
same,PHF cells expressing MMP-9,[5],57.3 ± 6.4%
same,PHF cells expressing MMP-11,[5],36.4 ± 6.8%
same,PHF cells expressing MMP-13,[5],45.4 ± 3.7%
same,PHF cells expressing MMP-14,[5],51.6 ± 3.5%
same,PHF cells expressing SPARC,[5],46.9 ± 1.6%
same,PHF cells expressing TGF-α,[5],33.4 ± 1.1%
same,PHF cells expressing TGF-β1,[5],34.5 ± 1.1%
same,PHF cells expressing TGF-β2,[5],45.6 ± 1.1%
same,PHF cells expressing TGF-β3,[5],44.5 ± 3.1%
same,PHF cells expressing MMP-3,[6],45.5 ± 1.6%
same,PHF cells expressing MMP-7,[6],54.3 ± 2.2%
same,PHF cells expressing MMP-9,[6],55.5 ± 2.4%
same,PHF cells expressing MMP-11,[6],25.5 ± 1.8%
same,PHF cells expressing MMP-13,[6],44.3 ± 2.5%
same,PHF cells expressing MMP-14,[6],45.1 ± 3.5%
same,PHF cells expressing SPARC,[6],47 ± 1.2%
same,PHF cells expressing TGF-α,[6],42.3 ± 2.1%
same,PHF cells expressing TGF-β1,[6],33.4 ± 2.1%
same,PHF cells expressing TGF-β2,[6],40.9 ± 2.1%
same,PHF cells expressing TGF-β3,[6],51.4 ± 1.6%
same,PHF cells expressing MMP-3,[7],43.4 ± 2.8%
same,PHF cells expressing MMP-7,[7],57.1 ± 3.8%
same,PHF cells expressing MMP-9,[7],52.3 ± 2.4%
same,PHF cells expressing MMP-11,[7],27.5 ± 3.8%
same,PHF cells expressing MMP-13,[7],45.4 ± 3.6%
same,PHF cells expressing MMP-14,[7],49.3 ± 3.5%
same,PHF cells expressing SPARC,[7],51.2 ± 3.3%
same,PHF cells expressing TGF-α,[7],42.5 ± 3.1%
same,PHF cells expressing TGF-β1,[7],33.6 ± 3.1%
same,PHF cells expressing TGF-β2,[7],40.7 ± 2.1%
same,PHF cells expressing TGF-β3,[7],51 ± 1.6%
same,cells expressing MMP-3,[8],63.4 ± 3.7%
same,cells expressing MMP-7,[8],66.1 ± 4.8%
same,cells expressing MMP-9,[8],62.3 ± 3.4%
same,cells expressing MMP-11,[8],67.8 ± 4.8%
same,cells expressing MMP-13,[8],61 ± 5.3%
same,cells expressing MMP-14,[8],58.4 ± 3.5%
same,cells expressing SPARC,[8],67 ± 4.2%
same,cells expressing TGF-α,[8],62.5 ± 3.1%
same,cells expressing TGF-β1,[8],64.5 ± 4.3%
same,cells expressing TGF-β2,[8],70.6 ± 4.1%
same,cells expressing TGF-β3,[8],61 ± 5.6%
same,Percentage of fibroblast cells which expressed MMP-3,[9]; [10],47.4 ± 2.4%
same,Percentage of fibroblast cells which expressed MMP-7,[9]; [10],55.1 ± 3.6%
same,Percentage of fibroblast cells which expressed MMP-9,[9]; [10],54.7 ± 4.5%
same,Percentage of fibroblast cells which expressed MMP-11,[9]; [10],28.4 ± 4.4%
same,Percentage of fibroblast cells which expressed MMP-13,[9]; [10],43.4 ± 4.6%
same,Percentage of fibroblast cells which expressed MMP-14,[9]; [10],48.6 ± 5.6%
same,Percentage of fibroblast cells which expressed SPARC,[9]; [10],47 ± 2.7%
same,Percentage of fibroblast cells which expressed TGFα,[9]; [10],45.5 ± 4.2%
same,Percentage of fibroblast cells which expressed TGFβ1,[9]; [10],35.3 ± 2.3%
same,Percentage of fibroblast cells which expressed TGFβ2,[9]; [10],44.5 ± 3.6%
same,Percentage of fibroblast cells which expressed TGFβ3,[9]; [10],45 ± 3.9%
same,Percentage of fibroblast cells which expressed MMP-3,[9]; [11],48.4 ± 5.1%
same,Percentage of fibroblast cells which expressed MMP-7,[9]; [11],59.4 ± 5.7%
same,Percentage of fibroblast cells which expressed MMP-9,[9]; [11],55.5 ± 4.5%
same,Percentage of fibroblast cells which expressed MMP-11,[9]; [11],28.9 ± 4.7%
same,Percentage of fibroblast cells which expressed MMP-13,[9]; [11],48.0 ± 5.6%
same,Percentage of fibroblast cells which expressed MMP-14,[9]; [11],46.3 ± 3.6%
same,Percentage of fibroblast cells which expressed SPARC,[9]; [11],56.2 ± 4.2%
same,Percentage of fibroblast cells which expressed TGFα,[9]; [11],38.4 ± 2.3%
same,Percentage of fibroblast cells which expressed TGFβ1,[9]; [11],35.4 ± 2.6%
same,Percentage of fibroblast cells which expressed TGFβ2,[9]; [11],42.4 ± 4.2%
same,Percentage of fibroblast cells which expressed TGFβ3,[9]; [11],52.1 ± 3.7%
same,Percentage of fibroblast cells which expressed MMP-3,[9]; [12],51.5 ± 5.8%
same,Percentage of fibroblast cells which expressed MMP-7,[9]; [12],54.4 ± 6.3%
same,Percentage of fibroblast cells which expressed MMP-9,[9]; [12],56.5 ± 4.6%
same,Percentage of fibroblast cells which expressed MMP-11,[9]; [12],38.6 ± 3.4%
same,Percentage of fibroblast cells which expressed MMP-13,[9]; [12],46.3 ± 3.4%
same,Percentage of fibroblast cells which expressed MMP-14,[9]; [12],47.6 ± 5.6%
same,Percentage of fibroblast cells which expressed SPARC,[9]; [12],47.3 ± 4.2%
same,Percentage of fibroblast cells which expressed TGFα,[9]; [12],37.5 ± 2.3%
same,Percentage of fibroblast cells which expressed TGFβ1,[9]; [12],37.3 ± 3.3%
same,Percentage of fibroblast cells which expressed TGFβ2,[9]; [12],52.3 ± 2.8%
same,Percentage of fibroblast cells which expressed TGFβ3,[9]; [12],46.1 ± 4.3%
same,Percentage of fibroblast cells which expressed MMP-3,[9]; [13],46.6 ± 5.7%
same,Percentage of fibroblast cells which expressed MMP-7,[9]; [13],57.6 ± 4.1%
same,Percentage of fibroblast cells which expressed MMP-9,[9]; [13],57.3 ± 4.5%
same,Percentage of fibroblast cells which expressed MMP-11,[9]; [13],29.4 ± 3.1%
same,Percentage of fibroblast cells which expressed MMP-13,[9]; [13],47.5 ± 4.3%
same,Percentage of fibroblast cells which expressed MMP-14,[9]; [13],47.2 ± 3.4%
same,Percentage of fibroblast cells which expressed SPARC,[9]; [13],46.3 ± 3.2%
same,Percentage of fibroblast cells which expressed TGFα,[9]; [13],49.3 ± 3.3%
same,Percentage of fibroblast cells which expressed TGFβ1,[9]; [13],45.6 ± 4.2%
same,Percentage of fibroblast cells which expressed TGFβ2,[9]; [13],52.3 ± 3.2%
same,Percentage of fibroblast cells which expressed TGFβ3,[9]; [13],47.4 ± 3.5%
same,Percentage of fibroblast cells which expressed MMP-3,[9]; [14],47.5 ± 6.1%
same,Percentage of fibroblast cells which expressed MMP-7,[9]; [14],56.6 ± 5.1%
same,Percentage of fibroblast cells which expressed MMP-9,[9]; [14],54.1 ± 5.2%
same,Percentage of fibroblast cells which expressed MMP-11,[9]; [14],27.1 ± 6.2%
same,Percentage of fibroblast cells which expressed MMP-13,[9]; [14],57.2 ± 4.7%
same,Percentage of fibroblast cells which expressed MMP-14,[9]; [14],46.2 ± 5.1%
same,Percentage of fibroblast cells which expressed SPARC,[9]; [14],43.7 ± 4.5%
same,Percentage of fibroblast cells which expressed TGFα,[9]; [14],44.2 ± 4.5%
same,Percentage of fibroblast cells which expressed TGFβ2,[9]; [14],43.6 ± 7.4%
same,Percentage of fibroblast cells which expressed TGFβ3,[9]; [14],45.4 ± 5.6%

# Reference: patent publication US20180071317A1, “USE OF AGENTS THAT ALTER THE PERITUMORAL ENVIRONMENT FOR THE TREATMENT OF CANCER” (SERVICIO ANDALUZ DE SALUD, priority 2011, published 2018)
